Test results: US20050245534A1, “Inhibitors of the 11-beta-hydroxysteroid dehydrogenase Type 1 enzyme” (priority 2004, published 2005)

Assays:
[1] = tested on: Male B6.VLep ob(-/-) (ob/ob) mice; test: ob/ob Mouse Model of Type 2 Diabetes; type: in vivo; conditions: three weeks
Experimental: Male B6.VLep^ob(−/−) (ob/ob) mice and their lean littermates (Jackson Laboratory, Bar Harbor, Me.) were group housed and allowed free access to food (Purina 5015) and water. Mice were 6-7 weeks old at the start of each study. On day 0, animals were weighed and postprandial glucose levels determined (Medisense Precision-X™ glucometer, Abbott Laboratories). […] Animals were weighed, and postprandial glucose measurements were taken weekly throughout the study. On the last day of the study, 16 hours post dose (unless otherwise noted) the mice were euthanized via CO2, and blood samples (EDTA) were taken by cardiac puncture and immediately placed on ice. Whole blood measurements for HbA1c were taken with hand held meters (A1c NOW, Metrika Inc., Sunnyvale Calif.). Blood samples were then spun and plasma was removed and frozen until further analysis. The plasma triglyceride levels were determined according to instructions by the manufacturer (Infinity kit, Sigma Diagnostics, St. Louis Mo.).

Male CD-1 mice = test: Mouse Dehydrocorticosterone Challenge Model, plasma corticosterone; type: in vivo
Experimental: Male CD-1 (18-22 g) mice (Charles River, Madison, Wis.) were group housed and allowed free access to food and water. Mice are brought into a quiet procedure room for acclimation the night before the study. Animals are dosed with vehicle or compound at various times (pretreatment period) before being challenged with 11-dehydrocorticosterone (Steraloids Inc., Newport, R.I.). Thirty minutes after challenge, the mice are euthanized with CO2 and blood samples (EDTA) are obtained by cardiac puncture and immediately placed on ice. Blood samples were then spun, the plasma was removed, and the samples frozen until further analysis was performed. Corticosterone levels were obtained by ELISA (American Laboratory Prod., Co., Windham, N.H.) or HPLC/mass spectroscopy.

healthy volunteers = conditions: seven days; cited from earlier work

With `CC(C(=O)NC1C2CC3CC1CC(O)(C3)C2)N1CCN(c2ccc(C(F)(F)F)cn2)CC1` (stereo not shown) [Compound F, N-[(E)-5-hydroxy-2-adamantyl]-2-{4-[5-(trifluoromethyl)pyridin-2-yl]piperazin-1-yl}propanamide] the “% HbA1c” value ([1]; 30 mpk twice daily) was 7.6 ± 0.6%, the Glucose ([1]; 30 mpk twice daily) was 295 ± 31 mg/dL and the Triglycerides ([1]; 30 mpk twice daily) was 255 ± 22 mg/dL. For the same compound, the “% HbA1c” value ([1]; 100 mpk twice daily) was 6.4 ± 0.5%, the Glucose ([1]; 100 mpk twice daily) was 263 ± 21 mg/dL and the Triglycerides ([1]; 100 mpk twice daily) was 282 ± 36 mg/dL. For the same compound, the Plasma corticosterone levels (Male CD-1 mice; 30 mpk followed by 11-DHC, pretreatment period 0.5 hours) was 1297 ± 121, the Plasma corticosterone levels (Male CD-1 mice; 30 mpk followed by 11-DHC, pretreatment period 16 hours) was 1402 ± 99 and the Plasma corticosterone levels (Male CD-1 mice; 100 mpk followed by 11-DHC, pretreatment period 0.5 hours) was 742 ± 119. The Plasma corticosterone levels (Male CD-1 mice; 100 mpk followed by 11-DHC, pretreatment period 16 hours) was 1422 ± 129.

In the case of `C[C@]12CC(=O)[C@H]3[C@@H](CCC4=CC(=O)CC[C@@]43C)[C@@H]1CC[C@@H]2C(=O)CO` [Example 11-DHC, 11-dehydrocorticosterone, reference compound], the Plasma corticosterone levels (Male CD-1 mice; 11-DHC challenge without compound, pretreatment period 0.5 hours) is reported as 1478 ± 180 and the Plasma corticosterone levels (Male CD-1 mice; 11-DHC challenge without compound, pretreatment period 16 hours) is reported as 1200 ± 86.

In the case of `CC1(C)[C@@H](OC(=O)CCC(=O)O)CC[C@]2(C)[C@H]3C(=O)C=C4[C@@H]5C[C@@](C)(C(=O)O)CC[C@]5(C)CC[C@@]4(C)[C@]3(C)CC[C@@H]12` [carbenoxolone], the “reduction of IOP” value (healthy volunteers) is given as 17%.
